From ChEMBL document CHEMBL2169873, “Binding sites of retinol and retinoic acid with serum albumins” (Eur J Med Chem, 2012)

Assays:
Format in all cases: ADME
Albumin [1] = biological target: T1, Albumin (Bos taurus, UniProt P02769); experiment: Binding affinity to bovine serum albumin beta-antiparallel (1692 to 1680 cm'-1) at 0.5 mM after 2 hrs by FTIR spectroscopic analysis; details: cattle, isolated protein, 500 µM
Albumin [2] = biological target: T1, Albumin; experiment: Binding affinity to bovine serum albumin beta-sheet at 0.5 mM by circular dichroism analysis; details: cattle, isolated protein, 500 µM
Albumin [3] = biological target: T1, Albumin; experiment: Binding affinity to bovine serum albumin random coil (1648 to 1641 cm'-1) at 0.5 mM after 2 hrs by FTIR spectroscopic analysis; details: cattle, isolated protein, 500 µM
Albumin [4] = biological target: T1, Albumin; experiment: Binding affinity to bovine serum albumin by fluorescence quenching assay; details: cattle, isolated protein
Albumin [5] = biological target: T1, Albumin; experiment: Binding affinity to bovine serum albumin at 0.125 mM after 2 hrs by FTIR spectroscopic analysis; details: cattle, isolated protein, 125 µM
Albumin [6] = biological target: T1, Albumin; experiment: Binding affinity to bovine serum albumin beta-sheet (1640 to 1610 cm'-1) at 0.5 mM after 2 hrs by FTIR spectroscopic analysis; details: cattle, isolated protein, 500 µM
Albumin [7] = biological target: T1, Albumin; experiment: Binding affinity to bovine serum albumin alpha-helix (1660 to 1650 cm'-1) at 0.5 mM after 2 hrs by FTIR spectroscopic analysis; details: cattle, isolated protein, 500 µM
Albumin [8] = biological target: T1, Albumin; experiment: Binding affinity to bovine serum albumin alpha-helix at 0.5 mM by circular dichroism analysis; details: cattle, isolated protein, 500 µM
Albumin [9] = biological target: T1, Albumin; experiment: Binding affinity to bovine serum albumin by fluorescence spectroscopy analysis; details: cattle, isolated protein
Albumin [10] = biological target: T1, Albumin; experiment: Binding affinity to bovine serum albumin turn at 0.5 mM by circular dichroism analysis; details: cattle, isolated protein, 500 µM
Albumin [11] = biological target: T1, Albumin; experiment: Binding affinity to bovine serum albumin turn (1680 to 1660 cm'-1) at 0.5 mM after 2 hrs by FTIR spectroscopic analysis; details: cattle, isolated protein, 500 µM
Albumin [12] = biological target: T1, Albumin; experiment: Binding affinity to bovine serum albumin random coil at 0.5 mM by circular dichroism analysis; details: cattle, isolated protein, 500 µM
Albumin [13] = biological target: T1, Albumin; experiment: Binding affinity to bovine serum albumin alpha-helix (1660 to 1650 cm'-1) at 0.1 mM after 2 hrs by FTIR spectroscopic analysis; details: cattle, isolated protein, 100 µM
Albumin [14] = biological target: T1, Albumin; experiment: Binding affinity to bovine serum albumin random coil (1648 to 1641 cm'-1) at 0.1 mM after 2 hrs by FTIR spectroscopic analysis; details: cattle, isolated protein, 100 µM
Albumin [15] = biological target: T1, Albumin; experiment: Binding affinity to bovine serum albumin turn (1680 to 1660 cm'-1) at 0.1 mM after 2 hrs by FTIR spectroscopic analysis; details: cattle, isolated protein, 100 µM
Albumin [16] = biological target: T1, Albumin; experiment: Binding affinity to bovine serum albumin beta-antiparallel (1692 to 1680 cm'-1) at 0.1 mM after 2 hrs by FTIR spectroscopic analysis; details: cattle, isolated protein, 100 µM
Albumin [17] = biological target: T1, Albumin; experiment: Binding affinity to bovine serum albumin beta-sheet (1640 to 1610 cm'-1) at 0.1 mM after 2 hrs by FTIR spectroscopic analysis; details: cattle, isolated protein, 100 µM

T1 sequence (P02769 whole entry): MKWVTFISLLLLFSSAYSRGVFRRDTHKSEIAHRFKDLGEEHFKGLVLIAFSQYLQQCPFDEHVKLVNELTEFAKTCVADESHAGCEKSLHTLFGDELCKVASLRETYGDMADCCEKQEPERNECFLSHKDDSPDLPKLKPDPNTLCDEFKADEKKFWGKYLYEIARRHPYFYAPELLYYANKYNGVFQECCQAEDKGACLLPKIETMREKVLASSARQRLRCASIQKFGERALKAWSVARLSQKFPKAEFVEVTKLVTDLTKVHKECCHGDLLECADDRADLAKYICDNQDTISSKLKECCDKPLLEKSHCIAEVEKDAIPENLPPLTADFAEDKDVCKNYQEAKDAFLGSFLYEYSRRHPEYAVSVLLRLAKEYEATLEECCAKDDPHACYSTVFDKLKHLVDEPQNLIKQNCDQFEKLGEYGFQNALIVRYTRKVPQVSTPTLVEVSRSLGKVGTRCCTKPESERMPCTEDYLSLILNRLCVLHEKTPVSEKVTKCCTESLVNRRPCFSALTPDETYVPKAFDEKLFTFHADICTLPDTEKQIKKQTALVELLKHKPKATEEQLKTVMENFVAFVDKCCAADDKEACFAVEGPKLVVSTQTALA

SMILES	Activity (Albumin [1])	Activity (Albumin [2])	Activity (Albumin [3])	Kq (Albumin [4])	Activity (Albumin [5])	Activity (Albumin [6])	Activity (Albumin [7])	Activity (Albumin [8])	K (Albumin [9])	Activity (Albumin [10])	Activity (Albumin [11])	Activity (Albumin [12])	Activity (Albumin [13])	Activity (Albumin [14])	Activity (Albumin [15])	Activity (Albumin [16])	Activity (Albumin [17])
CC1=C(/C=C/C(C)=C/C=C/C(C)=C/CO)C(C)(C)CCC1 [RETINOL]	10%	16%	20%	4.5 ×10¹³ /M/sec	Active	19%	36%	52%	5.3 ×10⁶ /M	14%	15%	18%	–	–	–	–	–
CC1=C(/C=C/C(C)=C/C=C/C(C)=C/C(=O)O)C(C)(C)CCC1 [TRETINOIN]	–	18%	–	2.5 ×10¹³ /M/sec	Active	–	–	44%	2.3 ×10⁶ /M	18%	–	20%	26%	25%	27%	7%	15%
